# From patent US20130005759A1, “SMALL MOLECULE MODIFIERS OF MICRORNA MIR-122” (North Carolina State University, priority 2010, published 2013)
# Experiments:
# [1] = system: miR-122; assay: quantitative RT PCR of mature miR-122 in Huh7 cells; type: cell-based, human; conditions: Huh7, 10 μM, 48 hours
# Procedure: The activity of the small molecule modifiers was analyzed by quantitative RT PCR in order to measure their direct effects on miR-122 expression levels in Huh7 cells. […] All experiments were conducted in triplicate, and the data was normalized to a DMSO control.
# Each treatment was conducted in triplicate to ensure statistical validity. Cells were then incubated at 37° C. for 48 hours (DMEM, 5% CO2). The media was removed, and cells were washed with PBS buffer (2×2 mL, pH 7.4) followed by RNA isolation with the mirPremier™ microRNA Isolation Kit (Aldrich). The RNA was quantified using a Nanodrop ND-1000 spectrophotometer and 10 ng of each RNA sample was reverse transcribed using the TaqMan™ microRNA Reverse Transcription Kit (Applied Biosystems) in conjunction with either the miR-122 or miR-21 TaqMan™ RT primer (16° C., 30 min; 42° C., 30 min; 85° C., 5 min). Quantitative Real Time PCR was conducted with a TaqMan™ 2× Universal PCR Master Mix and the appropriate TaqMan™ miRNA assay (Applied Biosystems) on a BioRad MyiQ RT-PCR thermocycler (1.3 μL RT PCR product; 95° C., 10 min; followed by 40 cycles of 95° C., 15 s; 60° C. 60 s). Threshold cycles were used to determine miRNA copy numbers, and the levels of miR-122 and miR-21 were compared via determination of threshold cycle (Ct) and conversion to copy number (copy number=10[(Ct−37.4)/−3.3]).^17 The data was then normalized to the DMSO control. The samples were also analyzed by real time PCR for the presence of pri-miR-122 transcript using the previously described primers (5′ […] 3′ (SEQ ID NO:5) and 5′ […] 3′ (SEQ ID NO:6); IDT DNA) and iQ SYBR Green Supermix for the real time PCR (95° C., 3 min; followed by 40 cycles of 95° C., 15 s; 60° C. 60 s).^14
# [2] = system: caspase-3 and -7; assay: Caspase-Glo 3/7 assay in HepG2 cells; type: cell-based; conditions: HepG2, 10 μM, 48 hours
# Text: (§1) This enhanced caspase activity led to a reduced cell viability of ˜20% (CellTiter-Glo, Promega) (FIGS. 8A and B), exceeding previously reported reductions in cell viability due to lentiviral over-expression of miR-122 in HepG2 cells.^13 An increased caspase 3/7 level is observed in HepG2 cells due to activation of the pro-apoptic miR-122 (FIG. 8A). This increase is more pronounced in HepG2 than Huh7 cells, due to the different basal miR-122 levels in both cell lines. […] Thus, a small molecule activator of miR-122, like compound 3, has therapeutic relevance towards the selective treatment of HCC.
# Both HepG2 and Huh7 cells were passaged into a 96-well plate and grown to 70% confluency. The media was then removed and replaced with standard growth media supplemented with 3 (10 μM) or a DMSO control (1% final DMSO concentration in all wells) and incubated for 48 hours at 37° C. All incubations were conducted in triplicate to ensure statistical validity. The media was removed and cells were assayed with the Caspase-Glo 3/7 (Promega) kit according to the manufacturers directions and luminescence was measured using a Wallac VICTOR^3V luminometer with a measurement time of 1 s and a delay time of 2 s.
# [3] = system: HepG2 cells; assay: CellTiter-Glo cell viability in HepG2 cells; type: cell-based; conditions: HepG2, 10 μM, 48 hours
# [4] = system: miR-21; assay: miR-21 luciferase reporter assay in HeLa-miR-21-Luc cells; type: cell-based; conditions: 10 μM, 48 hours
# Procedure: Using the previously described HeLa-miR-21-Luc cell line (a stably transfected line harboring a miR-21 binding sequence in the 3′ UTR of a firefly luciferase gene),(9) cells were grown to 80% confluency (DMEM) and treated with either DMSO, the previously reported miR-21 inhibitor, or compounds 1 and 2 at 10 μM (1% DMSO final concentration). The cells were incubated for 48 hours at 37° C. (5% CO2) and then assayed with a Bright-Glo Luciferase Kit (Promega) and analyzed using a Wallac VICTOR^3V luminometer with a measurement time of 1 s and a delay time of 2 s (FIG. 4).
# [5] = system: Huh7 cells; assay: CellTiter-Glo cell viability in Huh7 cells; type: cell-based, human; conditions: Huh7, exposure to compound
# Text: as §1
# HepG2 and Huh7 cells were passaged into a 96-well plate and grown to 60% confluency. The media was then removed and replaced with standard growth media supplemented with increasing concentrations of the miR-122 small molecule modifiers (0-20 μM; 1% final DMSO concentration) and incubated for 48 hours at 37° C. Cellular viability was then assessed using a Cell-Titer Glo Assay (Promega) according to the manufacturers directions and luminescence was measured using a Wallac VICTOR^3V luminometer with a measurement time of 1 s and a delay time of 2 s.
# [6] = system: miR-122; assay: psiCHECK-miR122 dual luciferase reporter assay in Huh7 cells; type: cell-based, human
# Text: A miRNA small molecule modifier screen for miR-122 was developed based on the psiCHECK-2 (Promega) reporter plasmid (FIG. 9). This construct expresses both Renilla luciferase as well as firefly luciferase, allowing for the normalization of the signal to account for differential cellular viability and variability in transfection efficiency. The miR-122 target sequence was inserted downstream of the Renilla luciferase gene, between the PmeI and SgfI restriction sites. In another aspect of the invention, plasmids expressing luciferase or another reporter gene such as for example, fluorescent reporters (GFP and variants thereof, DsRed, etc.) or beta-galactosidase can be used to screen for small molecule modifiers of miR-122. The mi-122 target sequence may be upstream or downstream of the reporter gene. Multiple miR-122 target sites can also be inserted into or be present in the plasmid.
# The presence of mature miR-122 will lead to a decrease in the Renilla luciferase signal (FIG. 1a). The ability to detect endogenous miR-122 was validated by transfecting the generated psiCHECK-miR122 construct into Huh7 and HeLa cells. After 48 hour incubation, the cells were assayed using a Dual Luciferase Assay Kit (Promega). In another embodiment, the cells can be incubated for about 24-96 hours. The Dual Luciferase Assay Kit provides a means to measure the amount of the luciferases by generating a luminescent signal. Using this assay the luminescence from the firefly luciferase reaction may be quenched while the luminescent reaction of Renilla luciferase can be activated. Other assays and procedures that can determine the amount of the one or more reporter genes or miR-122 expression, activity or function can be used. An example of another assay is Dual-Glo Assay (Promega).
# The psiCHECK-miR122 vector was then employed in a small molecule screen in Huh7 cells to discover modifiers of miR-122 function. Other cells that express miR-122 such as HepG2 and Hep3B can be used in addition to or instead of Huh7 cells. An increase in the relative Renilla luciferase signal indicates a miR-122 inhibitor, while a reduction in the luciferase signal indicates a miR-122 activator. A genus of compounds that may have activity as modifiers of miR122 function are the Diversity Set II (1364 compounds) from the NCI Developmental Therapeutics Program was screened using Huh7 cells containing the psiCHECK-miR122 reporter. Cells were exposed to the small molecules and the relative luciferase signal was measured after 48 hours using a Dual Luciferase Assay Kit (Promega). In another embodiment the cells can be exposed to the small molecules for about 24-96 hours. As explained above, other assays and procedures that can determine the amount of the one or more reporter genes or miR-122 expression, activity or function can be used.
# The analogs were screened for activity using the previously described miR-122 assay. All cells were treated with 10 μM of a compound and experiments were performed in triplicate to ensure statistical validity. The data was normalized to a 1% DMSO control and is reported in relative luciferase units (RLU). The standard deviation was calculated from three independent assays. Some analogs of miR-122 inhibitor compound 1 are:
# Huh7 and HeLa cells were transfected at approximately 60% confluency with either the psiCHECK-Control plasmid (the original psiCHECK-2 plasmid containing no known miRNA binding site) or the psiCHECK-miR122 plasmid (0.5 μg) using X-tremGENE transfection reagent (3:2 reagent/DNA ratio; Roche) in Opti-Mem media (Invitrogen). All transfections were performed in triplicate for statistical analysis. The cells were incubated at 37° C. for 4 hours followed by the replacement of transfection media with standard DMEM growth media. After 48 hours of incubation the media was removed, cells were lysed and assayed with a Dual Luciferase Assay Kit (Promega) using a Wallac VICTOR^3V luminometer with a measurement time of 1 s and a delay time of 2 s. […]
smiles,measurement,setting,value
CN(C)CCN1C(=O)c2cccc3cc(N)cc(c23)C1=O [Compound 3],increase in miR-122 expression levels,[1],438%
same,increase in the activity of caspase-3 and -7,[2],~20 fold
same,reduced cell viability,[3],~20%
same,activity in miRNA-21 reporter (luciferase signal),[4],No effect
same,cell viability (in words),[5],only slightly affected
same,IC50,"[6]; Homo sapiens, Huh-7, Huh7, calculated from FIG. 5, read-out: IC50 (miR-122 activator, luciferase dose response)",0.37 ± 0.02 µM
same,reduction of the Renilla luciferase signal,"[6]; Huh7, psiCHECK-miR122, 10 μM",7 fold
same,relative luciferase units (RLU) normalized to a DMSO control,"[6]; Huh7, psiCHECK-miR122, 10 μM, mean ± SD of three independent assays",0.11±0.02 RLU
